The record followed here is patent US9486434B2, “Method for delivery and use of isothiocyanates for prophylaxis and/or therapy of bladder cancer” (Health Research Inc., priority 2010, dated 2016).

Each structure is given as a SMILES string. Read-outs that look alike come from different tables or passages of the source. Where only a bound is given, the exact number is not on record here.

Data set [1] concerns rat bladder cancer AY-27 cells. Put plainly: MTT cell growth and proliferation assay, AY-27 cells. Format: cell-based. Particulars: Rattus norvegicus, read-out: IC50, inhibition of cell proliferation. On the procedure:
(§1) FIG. 3. The effect of AITC on cell survival and proliferation. AITC was evaluated at the indicated concentrations in human bladder cancer UM-UC-3 cells, rat bladder cancer AY-27 cells, and normal human bladder epithelial cells (HUC). A. Cell growth inhibition, measured by MTT assay, 72-h AITC treatment. IC50 was calculated from nonlinear regression curve fit. B. Cell cycle arrest (□, subG1; ? , G1; ? , 5; ▪, G2/M), measured by flow cytometry, 24 h AITC treatment. C. Apoptosis induction, measured by an ELISA assay, 24 h AITC treatment. Mean±SE, n=3-6), *P<0.05.
(§2) FIG. 10. The effect of NAC-AITC on cell survival and proliferation. NAC-AITC was evaluated in both UM-UC-3 cells and AY-27 cells. (A) Chemical structures of AITC and NAC-AITC. (B) Cell growth and proliferation, measured by 3-([…])-2,5-diphenyltetrazolium bromide assay, 72 h treatment with AITC or NAC-AITC at indicated concentrations. IC50 was calculated from the non-linear regression curve fit. (C) Apoptosis, measured by an enzyme-linked immunosorbent assay, 24 h NAC-AITC treatment at 15 µM. (D) Cell cycle (open bars, G1; shaded bars, S; closed bars, G2/M), measured by flow cytometry, 24 h NAC-AITC treatment at 15 μM. *P<, 0.005, compared with control.
Assays for cell proliferation, cell cycle arrest and apoptosis. To determine the antiproliferative activity of NAC-AITC, AY-27 cells were grown in 96-well microtiter plates ([…] with 0.15 ml medium per well) for 24 h and then grown for 72 h in fresh medium (0.2 ml/well) containing a series of concentrations of NAC-AITC or solvent. Cell growth was measured at the end of treatment using the 3-([…])-2,5-diphenyltetrazolium bromide assay, from which the half maximal inhibitory concentration (IC50) of NAC-AITC was calculated. AITC was also evaluated for comparison.

Data set [2] has as its system AY-27 cells. The data set is described as follows: Cell cycle arrest by flow cytometry, AY-27 cells. The format is cell-based, rat. The conditions noted are these: 24 h. As to the method:
as §1, §2
The effect of NAC-AITC on cell cycle progression was measured by flow cytometry as described previously. Briefly, 1.5×10^6 AY-27 cells were grown in each 10-cm plate with 10 ml medium for 24 h and then treated with NAC-AITC or solvent for 24 h before analysis. Induction of apoptosis by NAC-AITC was measured using the Cell Death Detection ELISA^plus kit (Roche Diagnostics, Indianapolis, Ind.), following the manufacturer's instruction. […] At the end of treatment, the cells were treated with lysis buffer, and after a low-speed centrifugation, a portion of the supernatant fraction was used for spectroscopic measurement (expressed as A405-490 nm) of cytoplasmic levels of histone-associated mononucleosomes or oligonucleosomes by an enzyme-linked immunosorbent assay. […]
Background: Flow cytometry measures light scatter and fluorescence of single cells or particles in a stream.

Data set [3] relates to UM-UC-3 cells. Put plainly: Apoptosis induction ELISA (histone-associated DNA), UM-UC-3 cells. The format is cell-based, human. The conditions noted are these: 24 h. As to the method: as §1, §2
The effect of NAC-AITC on cell cycle progression was measured by flow cytometry as described previously. […]
A general note: ELISA stands for enzyme-linked immunosorbent assay.

For data set [4], the system named is orthotopic AY-27 bladder tumor. The data set is described as follows: Orthotopic rat bladder cancer model. Format: in vivo, rat (female F344). The conditions noted are these: for tumor-bearing bladders showing muscle invasion: control 71%. The text has this:
FIG. 6. […] Female F344 rats were inoculated intravesically with bladder cancer AY-27 cells to initiate development of orthotopic bladder tumor. Oral administration of AITC at 0, 10, 25, 50 and 300 micromols/kg once daily was started 1 day after AY-27 cell inoculation and ended 3 weeks later. The number of rats per group varied from 6 to 33; some of the data, particularly the control group (n=33) and the group treated with the lowest dose of AITC (n=23), were pooled from several experiments. A. The initial and final body weights. B. The weights of bladder tumors. […] C. Percentage of bladders where the tumor invaded the muscle tissue. D. H/E staining of the normal rat bladder wall (D1), a superficial rat bladder tumor (D2), and a rat bladder tumor that invaded the muscle layer (D3).
FIG. 8. […] Female F344 rats were inoculated with AY-27 cells intravesically via a urethra catheter to initiate development of orthotopic bladder cancer. Oral administration of MSP-1 of vehicle (water) once daily was started 1 day after cancer cell inoculation and ended 3 weeks later. The number of rats per group varied from 11-29. A. Initial (□) and final (▪) body weights. […] Each value in A and B is mean±SEM. C. Percentage of bladder where the tumor invaded the muscle tissue. D. The effects of MSP-1 on selected anticancer targets in UM-UC-3 cells (in vitro), AY-27 cells (in vitro) and AY-27 tumors (in vivo). […] The bladder tumors were removed from rats treated with MSP-1 at the sinigrin doses of 9 or 90 micromols/kg once daily for 3 weeks, started 1 day after cancer cell inoculation. Cell lysates and tumor homogenates were analyzed by Western blotting, using GAPDH as a loading control.
FIG. 9. […] Female F344 rats were inoculated with bladder cancer AY-27 cells to initiate development of orthotopic bladder tumor. Oral administration of the powder (sinigrin and glucoraphanin: each at 10 micromols/kg) once daily was started 1 day after AY-27 cell inoculation and ended 3 weeks later. The number of rats per group was 9-10. Each value is mean±SE.
FIG. 12. […] Bladder cancer was initiated in female F344 rats by orthotopic inoculation of bladder cancer AY-27 cells. Oral administration of NAC-AITC at 10 μmmol/kg body wt once daily was started 1 day after cancer cell inoculation and ended 3 weeks later. There were 23 rats in the control group and 15 rats in the treatment group. (A) The initial (open bars) and final (closed bars) body weight. (B) Bladder tumor weight. Each value is a mean±SE. (C) Percentage of bladders where the tumor invaded the muscle tissue.
AITC was evaluated in an orthotopic rat bladder cancer model. […] Daily oral administration of AITC was initiated one day after instillation of AY-27 cells and continued for 3 weeks. AITC was evaluated at 4 dose levels: 10, 25, 50 and 300 micromols/kg. […] FIG. 6D depicts representative images of normal rat bladder wall (D1), a superficial AY-27 rat bladder tumor (D2), and a muscle-invasive AY-27 rat bladder tumor (D3).
A syngeneic orthotopic rat bladder cancer model.

Where [5] appears, read: 10 μmol/kg body wt oral once daily, 3 weeks.

`C=CCN=C=S` [AITC, allyl isothiocyanate]: the IC50 in data set [1] (AY-27, 72 h) was 3.3 µM. In addition, the “cells in G2/M phase” value in data set [2] (AITC 7.5-15 microM, control 9.9-11.5%) is on record as at most 49%. Further, the “increase in subG1 population” value in data set [2] (AITC) was at most 7.8 fold. In addition, in data set [3] (AITC), the “increase in cytoplasmic levels of histone-associated DNA” value is given as “up to 3.9 fold”. The “inhibition of muscle invasion” value in data set [4] (setting [5]) was determined as 73%. Besides, the “inhibition of tumor growth” value was 30% in data set [4] (setting [5]) and 30% in data set [4] (AITC lower dose levels (10, 25, 50 micromols/kg) oral daily, 3 weeks). Besides, the entries for the “tumor-bearing bladders showing muscle invasion” value in data set [4] (AITC 10 micromols/kg), in data set [4] (AITC 25 micromols/kg) and in data set [4] (AITC 50 or 300 micromols/kg) were 18.9%, 27% and 50%, respectively. In addition, the “inhibition of orthotopic bladder cancer growth” value in data set [4] (AITC 300 micromols/kg oral daily, 3 weeks) is 20%.
For `C=CCNC(=S)SC[C@H](NC(C)=O)C(=O)O` [NAC-AITC, N-acetyl-S—(N-allylthiocarbamoyl)cysteine], the IC50 in data set [1] (AY-27, Example 9, 72 h treatment) is 9.1 µM. Also, in data set [2] (NAC-AITC 15 µM, control 11-12%), the “cells in G2/M phase” value is listed as 45%. The “increase in apoptotic activity” value in data set [3] (15 μM) was 8.8 fold. Further, in data set [4] (setting [5]), the “inhibition of muscle invasion” value was determined as 49% and the “inhibition of tumor growth” value amounted to 40%. Besides, the “effect on body weight” value in data set [4] (NAC-AITC 10 μmol/kg daily, 3 weeks) is “no significant effect on body weight”. In addition, in data set [4] (NAC-AITC 10 μmol/kg, control 79%), the “bladders with muscle invasion” value was 30%.
